test system: U23674 (mouse alveolar rhabdomyosarcoma primary culture)
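Note: alveolar rhabdomyosarcoma tumor culture.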

SMILES | IC50 cell viability
COc1cc2ncn(-c3cc(OCc4ccccc4C(F)(F)F)c(C(N)=O)s3)c2cc1OC | > 10 µM
NS(=O)(=O)c1ccc(Nc2cc(-c3ccc(O)c(F)c3)[nH]n2)cc1 | > 10 µM
c1cnn2ncc(-c3ccnc(NCCCN4CCOCC4)n3)c2c1 | > 10 µM
CC1(C)CC(n2cnc(-c3ccc(F)cc3)c2-c2ccnc(N)n2)CC(C)(C)N1 | 0.2 µM
NC(=O)c1sc(-n2cnc3ccc(C(F)(F)F)cc32)cc1OCc1ccccc1Br | > 10 µM
NS(=O)(=O)c1ccc(N=Nc2c(O)[nH]c3ccc(-c4cnco4)cc23)cc1 | > 10 µM
[O-][S+]1CCN(Cc2ccc(-c3ccc4ncnc(Nc5ccc(OCc6ccccc6)c(F)c5)c4c3)o2)CC1 | > 10 µM
Nc1nc(-c2ccc3c(c2)C(=Cc2cc(Br)c(O)c(Br)c2)C(=O)N3)cs1 | > 10 µM
c1ccc(Oc2ccc(Nc3ncc(-c4ccccc4)o3)cc2)cc1 | > 10 µM
CCN1CCC(CC(=O)Nc2n[nH]c3nc(-c4cccs4)c(Br)cc23)CC1 | 1.3 µM
CN(C)c1ccc2[nH]c(O)c(C=Nc3ccc(S(N)(=O)=O)cc3)c2c1 | > 10 µM
CCS(=O)(=O)c1ccc(OC)c(Nc2nccc(N(C)c3ccc4c(C)[nH]nc4c3)n2)c1 | > 10 µM
COc1cc2ncnc(Nc3ccc(C)c(O)c3)c2cc1OC | > 10 µM
COc1ccccc1-c1cc(/C=C2\C(=O)Nc3ncc(Br)cc32)cc(Br)c1O | > 10 µM
COc1cc2ncn(-c3cc(OCc4cccs4)c(C(N)=O)s3)c2cc1OC | > 10 µM
NS(=O)(=O)c1cccc(Nc2cc(-c3ccc(F)cc3)[nH]n2)c1 | > 10 µM
COc1cccc(-n2ncc3c(N/N=C/c4ccc(C)cc4)ncnc32)c1 | > 10 µM
Fc1cccc(COc2ccc(Nc3ncnc4sc(-c5ccco5)cc34)cc2Cl)c1 | > 10 µM
O=C1Nc2ccccc2C1=C1CCc2cc(O)ccc21 | > 10 µM
O=C(Nc1ccc(Oc2ccc3nc(NC(=O)c4ccccc4)[nH]c3c2)cc1)Nc1cc(C(F)(F)F)ccc1F | > 10 µM
CNC(=O)c1cc(-c2ccc(F)cc2)cc(-c2ccc(S(=O)(=O)N3CCCC3)cc2)c1N | > 10 µM
COc1cc2ncn(-c3cc(OCc4ccccc4S(C)(=O)=O)c(C#N)s3)c2cc1OC | > 10 µM
O=C(NCC1CC1)c1ccc(-c2cccc(C(=O)NC3CC3)c2)cc1 | > 10 µM
Cc1ccc(C(=O)NC2CC2)cc1-c1ccc2[nH]ncc2c1 | > 10 µM
ON=C1CCc2cc(-c3nc(C4CCNCC4)[nH]c3-c3ccncc3)ccc21 | > 10 µM

SMILES | IC50 cell viability
Cc1nnc(-c2ccc(C)c(-c3ccc(C(=O)NCc4ccc(Cl)cc4)cc3)c2)o1 | > 10 µM
COc1cc2ncn(-c3cc(OCCc4ccccc4)c(C(N)=O)s3)c2cc1OC | > 10 µM
CN(C)CCOc1ccc(-c2nc(-c3ccncc3)c(-c3ccc4c(c3)CC/C4=N\O)[nH]2)cc1 | > 10 µM
CN1CCC(C(=O)Nc2n[nH]c3nnc(-c4ccccc4)cc23)CC1 | > 10 µM
COC(=O)Nc1nc2ccc(Oc3ccc(NC(=O)Nc4ccccc4)cc3)cc2[nH]1 | > 10 µM
CCC(=O)Nc1ccc(C)c(-c2ccc(C(=O)NCC3CC3)cc2)c1 | > 10 µM
COc1cccc(-n2cnc3c(N/N=C/c4ccncc4)ncnc32)c1 | > 10 µM
Oc1[nH]c2ccccc2c1C=Nc1ccc(-n2cncn2)cc1 | > 10 µM
CN(C)c1cc2c(Nc3ccc4nc(Cc5ccccc5)[nH]c4c3)ncnc2cn1 | > 10 µM
CNC(=O)c1cncc(/C=C/c2ccccc2C)c1 | > 10 µM
O=C1Nc2ccc(C(=O)c3ccco3)cc2/C1=C/c1cc(Cl)c(O)c(Cl)c1 | > 10 µM
COc1cc(/C=N/Nc2ncnc3c2cnn3C(C)C)ccc1O | > 10 µM
Cn1cc(C=C2C(=O)Nc3cccnc32)c2ccccc21 | > 10 µM
NCc1ccc(-n2c(-c3nonc3N)nc3cnccc32)cc1 | 3.9 µM
COc1ccc(-c2cc(-c3cn[nH]c3-c3ccccn3)ccn2)cc1 | > 10 µM
COc1ccc(-c2ccc3c(NC(=O)C4CC4)n[nH]c3n2)cc1 | > 10 µM
COc1cc(Nc2ncc(-c3ccccc3)o2)cc(OC)c1OC | > 10 µM
CC(C)c1ccc(Nc2nccc(-c3cnn4ncccc34)n2)cc1 | > 10 µM
CCNC(=O)O[C@H]1CN[C@H](C#Cc2cc3ncnc(Nc4ccc(OCc5cccc(F)c5)c(Cl)c4)c3s2)C1 | > 10 µM
c1ccc(-c2[nH]ncc2-c2ccnc(-c3ccc(OCCN4CCOCC4)cc3)c2)nc1 | > 10 µM
COc1cc2ncn(-c3cc(OCc4ccccc4Cl)c(C(N)=O)s3)c2cc1OC | > 10 µM
O=C1NC(=O)C(c2ccccc2Cl)=C1Nc1cccc(O)c1 | 2 µM
CCN(CC)S(=O)(=O)c1ccc(OC)c(Nc2ncc(-c3ccccc3)o2)c1 | > 10 µM
CS(=O)(=O)Nc1ccc(-c2ccc3c(NC(=O)C4CC4)n[nH]c3c2)cc1 | > 10 µM
COc1cccc(-n2ncc3c(N/N=C/c4ccncc4)ncnc32)c1 | > 10 µM

SMILES | IC50 cell viability
O=C1Nc2ccc(I)cc2C1=Cc1cc(Br)c(O)c(Br)c1 | > 10 µM
CCS(=O)(=O)c1ccc(OC)c(Nc2ncc(-c3cccc(F)c3)o2)c1 | > 10 µM
COc1cc(Nc2nccc(-c3cnn4ncccc34)n2)cc(OC)c1 | 4 µM
CCn1c(-c2nonc2N)nc2ccccc21 | > 10 µM
CCOc1nccc2c1nc(-c1nonc1N)n2CC | > 10 µM
Fc1cccc(COc2ccc(Nc3ncncc3C#Cc3ccccc3)cc2Cl)c1 | > 10 µM
N#Cc1c(NC(=O)c2cccc3ccccc23)sc2c1CCCC2 | 3.5 µM
COc1cccc(-n2ncc3c(N/N=C/c4ccc(S(C)(=O)=O)cc4)ncnc32)c1 | > 10 µM
Cc1ccc(NC(=O)c2ccnc(N3CCCC3)c2)cc1-c1ccc(C(=O)NCC2CC2)cc1 | > 10 µM
C#Cc1cccc(Nc2ncnc3ccc(OCCCCNCCS(C)(=O)=O)cc23)c1 | 4.9 µM
NC(=O)c1ccc2c(-c3ccnc(NCCCO)n3)c(-c3ccc(F)cc3)nn2c1 | > 10 µM
O=C(Nc1n[nH]c2nc(-c3ccco3)c(Br)cc12)C1CC1 | > 10 µM
COc1cc(N2CCN(C(C)C)CC2)ccc1Nc1nc(Nc2cccc3ncccc23)c2cc[nH]c2n1 | > 10 µM
NC(=O)c1sc(-n2cnc3ccccc32)cc1OCc1ccccc1Br | > 10 µM
Nc1nccc(-c2c(-c3ccc(F)cc3)ncn2C2CCC(O)CC2)n1 (centres undefined) | > 10 µM
CS(=O)(=O)Nc1ccc(-c2cc(-c3ccccc3)cc(C(N)=O)c2N)cc1 | > 10 µM
COc1cccc(COc2cc(-n3cnc4ccccc43)sc2C(N)=O)c1 | > 10 µM
COc1cccc(-n2ncc3c(N/N=C/c4ccc(F)cc4)ncnc32)c1 | > 10 µM
CN1CCC(n2cnc(-c3ccc(F)cc3)c2-c2ccnc(NCCO)n2)CC1 | > 10 µM
COc1ccc(-c2nn3ncccc3c2-c2ccnc(Nc3ccc(Cl)c(C(F)(F)F)c3)n2)cc1 | > 10 µM
COc1cc(N2CCN(C(C)C)CC2)ccc1Nc1nc(Nc2cccc(F)c2C(=O)O)c2cc[nH]c2n1 | > 10 µM
Cc1ccc2c(-c3ccnc(Nc4ccccc4)n3)c(-c3ccc(F)cc3)nn2n1 | > 10 µM
CC(=O)Nc1cccc(C#Cc2cncnc2Nc2ccc(OCc3cccc(F)c3)c(Cl)c2)n1 | > 10 µM
NC(=O)Cc1ccccc1Oc1nccc(-c2c(-c3ccc(F)cc3)ncn2C2CCNCC2)n1 | > 10 µM
COc1cc(C=NNc2ncnc3c2cnn3Cc2ccccc2)ccc1O | > 10 µM

SMILES | IC50 cell viability
Nc1nc(-c2cccc(Cl)c2)c(-c2ccc3ncccc3n2)s1 | > 10 µM
C[C@@H](Oc1cc(-n2cnc3ccc(OC4CCN(C)CC4)cc32)sc1C(N)=O)c1ccccc1Cl | 0.9 µM
O=c1[nH]c2ccc(N=Cc3c(O)[nH]c4ccccc34)cc2[nH]1 | > 10 µM
Cc1cccc2c(N=Nc3ccc(S(N)(=O)=O)cc3)c(O)[nH]c12 | > 10 µM
CS(=O)(=O)CCNCc1ccc(-c2ccc3ncnc(Nc4ccc(OCc5cccc(F)c5)c(C(F)(F)F)c4)c3c2)o1 | 4.8 µM
CS(=O)(=O)CCN(CC#N)Cc1ccc(-c2ccc3ncnc(Nc4ccc(OCc5cccc(F)c5)c(Cl)c4)c3c2)o1 | > 10 µM
COc1cc2ncn(-c3cc(OCc4ccccc4C(F)(F)F)c(C(C)=O)s3)c2cc1OC | > 10 µM
COc1cc2c(cc1Nc1nc(Nc3ccsc3C(N)=O)c3cc[nH]c3n1)N(C(=O)CN(C)C)CCC2 | 0.05 µM
Cc1cc(O)cc(C)c1/C=C/c1cncc(-c2nn[nH]n2)c1 | > 10 µM
O=S(=O)(CCNCc1ccc(-c2ccc3ncnc(Nc4ccc(OCc5cccc(F)c5)c(Cl)c4)c3c2)o1)c1ccccc1 | > 10 µM
CCS(=O)(=O)c1ccc(OC)c(Nc2ncc(-c3cccc(-c4ccccc4F)c3)o2)c1 | > 10 µM
COc1ccc(C2=C(N3CCc4ccccc43)C(=O)NC2=O)cc1 | > 10 µM
Nc1nonc1-c1nc2cnccc2n1C1CC1 | > 10 µM
CCn1c(-c2nonc2N)nc2c(C#CC(C)(C)O)ncc(OCC3CCCN3)c21 (centres undefined) | 5.2 µM
CN(C)CCNC(=O)Nc1ccc(N(C)c2ccnc(Nc3ccc(CS(C)(=O)=O)cc3)n2)cc1 | > 10 µM
CN(c1ccc(NC(=O)Nc2c(Cl)cccc2Cl)cc1)c1ccnc(Nc2cccc(CS(C)(=O)=O)c2)n1 | > 10 µM
NC(=O)c1sc(-n2cnc3cc(C(F)(F)F)ccc32)cc1OCc1ccccc1Br | > 10 µM
CN(C)C(=O)O[C@@H]1CN[C@@H](C#Cc2cc3ncnc(Nc4ccc(OCc5cccc(F)c5)c(Cl)c4)c3s2)C1 | > 10 µM
CS(=O)(=O)CCNCc1nc(-c2ccc3ncnc(Nc4ccc(F)c(Cl)c4)c3c2)cs1 | > 10 µM
CNC(=O)c1cncc(/C=C/c2ccccc2Cl)c1 | > 10 µM
COc1c(C(N)=O)cc(-c2ccc(Cl)cc2)cc1-c1ccc(S(N)(=O)=O)cc1 | > 10 µM
COc1cccc(-c2c[nH]c3c(N/N=C/c4ccncc4)ncnc23)c1 | > 10 µM
Nc1nccc(-c2c(-c3ccc(F)cc3)nn3cc(C(F)(F)F)ccc23)n1 | > 10 µM
O=C(Nc1n[nH]c2cc(-c3ccccc3)ccc12)C1CC1 | > 10 µM
